In brackets after ≈: the same amount, converted by molar mass. Structures can show the parent of a compound that is named as a salt.

This note sets out measurements from patent US7511078B2, “Antiallergic agents, drugs, foods, drinks or cosmetics containing them and process for producing the same” (Kikkoman Corporation, priority 2001, dated 2009).

One series has as its system rat fat cells. As to the kind of experiment: Histamine-release inhibiting activity from rat fat cells (Compound 48/80 induced). It counts as cell-based. Particulars: for IC50: 50% inhibition rate; for inhibition at 25 µg/mL: sample concentration 25 μg/ml; for inhibition at 75 µg/mL: sample concentration 75 μg/ml; for activity relative to the known agents (caffeic acid, ketotifen fumarate): from IC50 values of histamine-release inhibition; for inhibition at 250 µg/mL: sample concentration 250 μg/ml; for histamine-release inhibiting activity (FIG. 7): sample solutions 100 μg/ml each. Here is the method: Cells were collected from the abdominal cavity of rats immediately after being sacrificed by exsanguinations using heparin-containing fat cell buffer (composition: 0.150 M NaCl, 3.7 mM KCl, 3.0 mM Na2HPO4, 3.5 mM KH2PO4, 0.9 mM CaCl2, 5.6 mM D-glucose, 0.1% (w/v) gelatin) (Lectures on Experimental Biopharmacology, Vol.12, Inflammations and Allergies II, edited by Kazuo Ohuchi, published by Hirokawa Publishing, 1993, page 372). After washing the cells, the above heparin-containing fat cell buffer was added to a concentration of 2.0×10^5 cells/ml, and this was used as the cell suspension.
Meanwhile, 3 mg of tomato extract were dissolved in 1 ml of 1% dimethyl sulfoxide (DMSO) and used as a sample solution. Further, the naringenin chalcone obtained in Example 1-3, and ketotifen fumarate, which is known to have an antiallergic activity, were respectively dissolved in the heparin-containing fat cell buffer containing 0.15% DMSO (final concentration), and the tricaffeoylquinic acid obtained in Example 1-4, and caffeic acid, which is known to have an antiallergic activity, were respectively dissolved in heparin-containing fat cell buffer containing 0.08% ethanol (final concentration), and each of these were used as sample solutions having concentrations of 25-250 μg/ml.
80 μl of the above cell suspension were added to 20 μl of the sample solution and the mixture was incubated at 37° C. for 10 minutes. Subsequently, 20 μl of Compound 48/80 (5 μg/ml) were added as histamine-degranulation inducer, and the mixture was incubated for 10 minutes. After the mixture was cooled with ice, it was separated by centrifugation (1,500×g, 5 minutes, 4° C.), and the free histamine in the supernatant was measured by high-performance liquid chromatography equipped with a fluorescent detector.
Histamine-release inhibiting activity was calculated from the measured histamine values using calculation formula (1) shown below. Histamine-release inhibition rate (%)=(1−(S−B)/(C−B))×100 (1) • B: Amount of histamine released from control cells in the absence of inducer • C: Amount of histamine released from cells in the presence of inducer • S: Amount of histamine released from cells in the presence of test sample and inducer

The next series deals with rat macrophages. Put plainly: Leukotriene B4 release inhibiting activity from rat macrophages (opsonized zymosan, ELISA). It counts as cell-based. Particulars: Macrophage, read-out: Inhibition rate (%); for inhibition at 5 µg/mL: sample concentration 5 μg/ml; for inhibition at 50 µg/mL: sample concentration 50 μg/ml; for inhibition at 500 µg/mL: sample concentration 500 μg/ml. Here is the method:
Soluble starch (Wako, grade 1) and Bactopeptone (Difco) were suspended in physiological saline (0.9% NaCl, Ohtsuka Pharmaceutical, Co.) to have a concentration of 5% each. After sterilizing with an autoclave (121° C., 20 minutes), the suspension was cooled down to room temperature. The suspension was administered by injection into rat abdominal cavity in an amount of 5 mL per 100 g of body weight under ether anesthesia (using a 21G needle).
Four days later, the rats were sacrificed by exsanguination from the carotid artery under ether anesthesia. After adequately exsanguinating the rats, the rats were sprayed with ethanol and placed in a clean bench. 25 mL of CMF-HBSS (Ca, Mg free HBSS) were injected into the abdominal cavity followed by adequately rubbing the abdomen. The rats were laparotimized using sterilized instruments, and the solution within the abdominal cavity was collected. The collected solution was filtered using three layers of gauze. The abdominal cavity was further washed with 25 mL of CMF-HBSS (Ca, Mg free HBSS), and the solution was collected in the same manner. The collected cells were washed three times with ice-cold 0.1% BSA-PBS, suspended in 10% FBS-RPMI1640 medium. The cell suspension was dispersed in a 6 cm Petri dish to have 4.5×10^6 cells/3 mL/dish, and incubated for 2 hours in an incubator kept at 5% CO2 and 37° C. Subsequently, the supernatant was discarded, the Petri dish was washed three times with PBS to rinse off non-adherent cells, and the cells adhered onto inside of the Petri dish were used as macrophages. After the macrophages were pre-incubated for 20 minutes in 1% FBS-RPMI1640 medium, zymosan opsoninized using rat serum was added thereto, and the mixture was cultured in an incubator kept at 5% CO2 and 37° C. for a predetermined period of time. Incidentally, samples were added 30 minutes before addition of zymosan. After completion of culture, supernatant from the culture was recovered and the amount of LTB4 in the supernatant was measured using an ELISA kit (Leukotriene B4 EIA Kit, Cayman). Activity of inhibiting release of leukotriene B4 was calculated from the measured leukotriene B4 values using the following calculation formula (2): Leukotriene B4 release inhibition rate (%)=(1−(S−B)/(C−B))×100 (2) • B: Amount of leukotriene B4 released from control cells in the absence of inducer • C: Amount of leukotriene B4 released from cells in the presence of inducer • S: Amount of leukotriene B4 released from cells in the presence of test sample and inducer
In general terms: An ELISA detects its analyte on a solid surface through an enzyme-linked reagent.

The subject of the next series is mouse auricular edema. Put plainly: Anaphylaxis inhibitory action in mouse auricular edema (anti-TNP-IgE / picryl chloride). The series is classed as in vivo. Here is the method: C3H/Hecrj, 7-week-old female mice having body weights of 15-20 g were used in groups of five animals each. Tomato Extract 1 was suspended in 0.5% CMC-Na (sodium carboxymethyl cellulose) solution, while 0.5% CMC-Na was administered as a control. The samples were administered six times over the course of five days, and measurements were made on day 5. The animals were dosed once a day from day 1 through day 4, and on day 5, they were orally dosed twice, 4 hours before and 30 minutes after administration of anti-TNP-IgE solution. The dose of Tomato Extract 1 was 0.16 mg, 0.8 mg or 4 mg per 1 kg of mouse body weight.
0.2 ml of 1% anti-TNP-IgE solution was administered from the vein of eye ground, and 30 minutes later, sample solution was orally administered. Further 30 minutes later, thickness of the left and right ears were measured. Immediately after that, 10 μl of 0.8% acetone-olive oil (1:1) solution of picryl chloride was applied to each ear. The thickness of the left and right ears of the mice were measured two hours after application, and the difference in ear thickness before and after application was taken to represent edema caused by anaphylaxis. A test of significance was carried out using the Student's t-test.
Measurement was made in the same manner as in (1) above, except for administration method. Samples were administered six times over the course of five days, and measurement was made on day 5. The animals were dosed once a day from day 1 through day 4, and on day 5, they were orally dosed twice, 4 hours before and 30 minutes after administration of anti-TNP-IgE solution. The dose of tricaffeoylquinic acid was 0.16 mg, 0.8 mg, 4 mg or 20 mg per kilogram of mouse body weight.

The nature of series [1]: Cytotoxicity test (Trypan Blue, rat abdominal cavity cells). The conditions noted are these: various concentrations, 37° C., 0-120 minutes. It counts as cell-based. Here is the method:
To 80 μl of cell suspension (1-2×10^6 cells/ml) prepared in the same manner as in Example 2 were added 20 μl of sample solutions (Tomato Extract 1, naringenin chalcone, tricaffeoylquinic acid or dicaffeoylsuccinylquinic acid obtained in Example 1) with various concentrations, and the mixture was cultured at 37° C. Each of 10 μl aliquots was taken after 0, 10, 20, 60 and 120 minutes from the start of culturing, and each aliquot was added to 20 μl of 0.4% Trypan Blue prepared in advance. Judging those cells that were stained with blue pigment to be dead cells, the number of cells was counted under microscopic examination using a hemocytometer. Viability (percentage of viable cells to the total number of cells) and the number of viable cells were measured.

Setting [2] is: Rattus norvegicus, histamine release.
The mark [3] stands for this setting: Rattus norvegicus, histamine release, read-out: Inhibition rate (%).

In the case of `O=C(/C=C/c1ccc(O)cc1)c1c(O)cc(O)cc1O` [Naringenin chalcone, 2′,4′,6′,4-tetrahydroxy-chalcone], the IC50 (usually the point on the concentration scale where inhibition reaches its midpoint) with rat fat cells (setting [2]) was ~70 µg/mL (≈ 257 µM). In the series with rat fat cells (setting [3]), the inhibition (usually the drop in the measured response relative to a control, in per cent) at 25 µg/mL is 28.2% and the inhibition at 75 µg/mL was 53.9%. The inhibition at 50 µg/mL in the series with rat fat cells (Rattus norvegicus, histamine release, sample concentration 50 μg/ml, read-out: Inhibition rate (%)) worked out at 37.6%. In addition, the inhibition at 200 µg/mL in the series with rat fat cells (Rattus norvegicus, histamine release, sample concentration 200 μg/ml, read-out: Inhibition rate (%)) came to 82%. Moreover, the “activity relative to the known agents (caffeic acid, ketotifen fumarate)” value with rat fat cells is “roughly 3.5 times”. Further, in the series with rat macrophages, the inhibition at 5 µg/mL was determined as 62.3%, the inhibition at 50 µg/mL was found to be 93.5% and the inhibition at 500 µg/mL stood at 98.2%. Further, the “anaphylaxis inhibitory action (FIG. 8)” value in the series with mouse auricular edema (doses 0.0064, 0.032, 0.16 or 0.8 mg per kg) was “exhibited an anaphylaxis inhibitory action dose-dependently”. Also, the “cytotoxicity (viability and number of viable cells)” value (“cytotoxicity” below) in series [1] is listed as “no cytotoxicity was observed”.

Turning to `O=C(O)/C=C/c1ccc(O)c(O)c1` [Caffeic acid, caffeic acid, reference compound], the IC50 in the series on rat fat cells (setting [2]) was ~250 µg/mL (≈ 1390 µM). For the same compound, in the series with rat fat cells (setting [3]), the inhibition at 250 µg/mL turned out to be 50.1%. Besides, the “histamine-release inhibiting activity (FIG. 7)” value in the series on rat fat cells is given as “more potent in the order of caffeic acid followed by dicaffeoylquinic acid”.

Regarding `O=C(O)[C@]1(O)C[C@@H](O)[C@@H](O)[C@H](O)C1` [quinic acid, reference compound], in the series with rat fat cells, the “histamine-release inhibiting activity (FIG. 7)” value is listed as “did not inhibit histamine-release”.

For the compound `O=C(O)CCC(=O)OC1C(OC(=O)/C=C/c2ccc(O)c(O)c2)CC(O)(C(=O)O)CC1OC(=O)/C=C/c1ccc(O)c(O)c1` (stereo not drawn) [dicaffeoylsuccinylquinic acid, 3,5-dicaffeoyl-4-succinylquinic acid], the “histamine-release inhibiting activity (FIG. 7)” value with rat fat cells is recorded as “exhibited a significantly high activity”. Moreover, the “cytotoxicity” value in series [1] is recorded as “no cytotoxicity was observed”.

In the case of `O=C(/C=C/c1ccc(O)c(O)c1)O[C@@H]1C[C@](O)(C(=O)O)C[C@@H](O)[C@H]1O` [chlorogenic acid, reference compound], the “histamine-release inhibiting activity (FIG. 7)” value in the series with rat fat cells is listed as “did not inhibit histamine-release”.

In the case of `CN1CCC(=C2c3ccccc3CC(=O)c3sccc32)CC1` [Ketotifen fumarate, ketotifen fumarate, reference compound], in the series on rat fat cells (setting [2]), the IC50 was ~250 µg/mL. Also, in the series on rat fat cells (setting [3]), the inhibition at 25 µg/mL came out at 0%, the inhibition at 75 µg/mL turned out to be 13.1% and the inhibition at 250 µg/mL was 49.4%.

Turning to `O=C(/C=C/c1ccc(O)c(O)c1)OC1CC(O)(C(=O)O)CC(OC(=O)/C=C/c2ccc(O)c(O)c2)C1OC(=O)/C=C/c1ccc(O)c(O)c1` (stereo not drawn) [Tricaffeoylquinic acid, 3,4,5-tricaffeoylquinic acid], the half-inhibitory concentration (IC50) with rat fat cells (setting [2]) was ~25 µg/mL (≈ 36.8 µM). Moreover, in the series with rat fat cells (setting [3]), the inhibition at 25 µg/mL was found to be 54.1% and the inhibition at 75 µg/mL came out at 93.2%. Moreover, in the series with rat fat cells, the “activity relative to the known agents (caffeic acid, ketotifen fumarate)” value was “roughly 10 times” and the “histamine-release inhibiting activity (FIG. 7)” value is “exhibited a significantly high activity”. For the same compound, in the series on rat macrophages, the inhibition at 5 µg/mL was found to be 33.5%, the inhibition at 50 µg/mL stood at 65.8% and the inhibition at 500 µg/mL was 69.7%. The “anaphylaxis inhibitory action (FIG. 9)” value in the series on mouse auricular edema (dose 4 mg per kg) is on record as “exhibited an anaphylaxis inhibitory action”. For the same compound, in the series with mouse auricular edema (orally administered, 0.16, 0.8, 4 or 20 mg per kg, six doses over five days), the “anaphylaxis inhibitory action (FIG. 10)” value was “exhibited an anaphylaxis inhibitory action”. In addition, in series [1], the “cytotoxicity” value is on record as “no cytotoxicity was observed”.
